Measurements: ChEMBL document CHEMBL1151363, “Chemical composition and biological activity of the Tanzanian plant Ocimum suave” (1981)
Values after ≈ are worked out from the molar mass of the structure shown.

Tests used:
Type in all cases: functional
Saccharomyces cerevisiae = experiment: Antimicrobial activity against Saccharomyces cerevisiae UNSA Y-40 after 48 hrs
Micrococcus luteus = experiment: Antimicrobial activity against Micrococcus luteus ATCC 9341 after 48 hrs; settings: ATCC 9341, 48 h
Escherichia coli = experiment: Antimicrobial activity against Escherichia coli UNSWO24101 after 48 hrs
Staphylococcus aureus = experiment: Antimicrobial activity against Staphylococcus aureus ATCC 6538 after 48 hrs; settings: ATCC 6538, 48 h

C=CCc1ccc(O)c(OC)c1 [EUGENOL]
MIC (Saccharomyces cerevisiae): 400 µg/mL (≈ 2.44 mM) | MIC (Micrococcus luteus): 600 µg/mL (≈ 3.65 mM) | MIC (Escherichia coli): 600 µg/mL (≈ 3.65 mM) | MIC (Staphylococcus aureus): 700 µg/mL (≈ 4.26 mM)
